Literature values, collected in US20070219250A1, “Pharmaceutical Compositions of Nateglinide” (priority 2003, published 2007).

CC(C)[C@H]1CC[C@H](C(=O)N[C@H](Cc2ccccc2)C(=O)O)CC1 [Nateglinide]
Solubility in water: insoluble
